The results in this text go back to patent publication US20240325495A1, “FUSION PROTEINS FOR THE TREATMENT OF DISEASE” (Bristol-Myers Squibb Company, priority 2020, published 2024).

The subject of this assay is NZB×NZW F1 mice. Put plainly: mIL-2/CD25 and prednisolone combination in NZB×NZW mice. Type of assay: in vivo, mouse. The method, then:
The effect of mIL-2/CD25 on Tregs was also assessed in the spleen at completion of this study (after 14 weeks of treatment).
At completion of study, one kidney from each mouse was collected in RNA Later and then homogenized in mRNA Catcher Lysis Buffer with a Tissue Lyser. mRNA was purified using mRNA Catcher PLUS according to the manufacturer's protocol (Invitrogen). cDNA was synthesized using SuperScript II with random hexamer primers. PCR was performed with SYBR Green Master Mix (Invitrogen). Relative quantification analysis was determined using the 2-ΔΔCT method using cyclophilin (PPIA) as the housekeeping gene. Expression of inflammatory cytokine and leukocyte surface receptors were analyzed.

Take `C[C@]12C=CC(=O)C=C1CC[C@@H]1[C@@H]2[C@@H](O)C[C@@]2(C)[C@H]1CC[C@]2(O)C(=O)CO` [prednisolone, Prednisolone]: the “percentage of Tregs and CD25 MFI on Tregs in the spleen” value (after 14 weeks of treatment) is listed as “did not alter”. For the same compound, where the note is “prednisolone 1 mg/kg p.o. 3×/week, mIL-2/CD25 0.1 mg/kg s.c. 2×/week, or both, 14 weeks”, the “proteinuria levels and anti-dsDNA titers” value was “partial protection”.
